In patent EP3964206A1, “COMPOUNDS FOR THE TREATMENT OF COVID-19” (priority 2020, dated 2022):
Where a name gives a salt, the structure may show the parent alone.

Tested on: SARS-CoV-2
Test: microbe, parasite or virus in culture
Assay type: cell-based
Conditions: Severe acute respiratory syndrome coronavirus 2, 120 h; for Emax: read-out: Maximum confluence reached (%)

| Structure (SMILES) | Emax [%] | IC50 [µM] |
| --- | --- | --- |
| N#Cc1cccc(C#N)c1-c1nc2c3ccc(Cl)cc3c3ccccc3c2[nH]1 [Compound 64, 2-(6-Chloro-1H-phenanthro[9,10-d]imidazol-2-yl)benzene-1,3-dicarbonitrile] | 98.5 | – |
| CCCCOCCOc1ccc(-c2ccc3c(c2)C=C(C(=O)Nc2ccc([S@@+]([O-])Cc4cncn4CCC)cc2)CCCN3CC(C)C)cc1 [Compound 65, (-)-(S)-8-[4-(2-Butoxyethoxy)phenyl]-1-isobutyl-N-[4-(1-propyl-1H-imidazol-5-ylmethylsulfinyl)phenyl]-1,2,3,4-tetrahydro-1-benzazocine-5-carboxamide] | 70.9 | 55 |
| CC(C)(C)c1cc(C=C(C#N)C#N)cc(C(C)(C)C)c1O [Compound 66, (3,5-Di-tert-butyl-4-hydroxybenzylidene)malononitrile] | 47.6 | – |
| O=C(C1CC1)N1CC[C@@H](Cc2n[nH]c(=O)n2-c2ccc(-c3ccc4ccoc4c3)cc2)C1 [Compound 67, 4-[4-(1-Benzofuran-6-yl)phenyl]-5-[1-(cyclopropylcarbonyl)pyrrolidin-3(S)-ylmethyl]-3,4-dihydro-2H-1,2,4-triazol-3-one] | 31.1 | 17 |
| COc1cc2ncnc(Nc3cccc(Br)c3)c2cc1OC [Compound 68, 4-(3-Bromophenylamino)-6,7-dimethoxyquinazoline] | 54.5 | – |
| O=c1cc(N2CCOCC2)oc2c(-c3cccc4c3sc3ccccc34)cccc12 [Compound 69, 8-(Dibenzo[b,d]thien-4-yl)-2-(4-morpholinyl)-4H-1-benzopyran-4-one] | 90.5 | – |
| Cn1c(Nc2ccc(C(F)(F)F)cc2)nc2cc(Oc3ccnc(-c4nc(C(F)(F)F)c[nH]4)c3)ccc21 [Compound 70, 1-Methyl-N-[4-(trifluoromethyl)phenyl]-5-[2-[4-(trifluoromethyl)-1H-imidazol-2-yl]pyridin-4-yloxy]-1H-benzimidazol-2-amine] | 44.1 | – |
| O=C(O)Cc1cccc(OCCCN(Cc2cccc(C(F)(F)F)c2Cl)CC(c2ccccc2)c2ccccc2)c1 [Compound 71, 2-[3-[3-[N-[2-Chloro-3-(trifluoromethyl)benzyl]-N-(2,2-diphenylethyl)amino]propoxy]phenyl]acetic acid] | 38 | – |
| O=C(Nc1ccc(Cl)c(Cl)c1)Nc1ccc(Cl)c(Cl)c1 [Compound 72, 1,3-Bis(3,4-dichlorophenyl)urea] | 45.9 | – |
| O=[N+]([O-])c1ccc(N/N=C/c2sc(N3CCOCC3)nc2-c2ccccc2)c(S(=O)(=O)Nc2ccccc2Cl)c1 [Compound 73, N-(2-chlorophenyl)-2-[(2E)-2-[(2-morpholin-4-yl-4-phenyl-1,3-thiazol-5-yl)methylidene]hydrazinyl]-5-nitrobenzenesulfonamide] | 53.9 | – |
| Nc1ncnc2c1ncn2[C@@H]1CC[C@@H](O)[C@H]1O [Compound 74, (1R,2S,3R)-9-(2,3-Dihydroxycyclopentyl)adenine] | 38 | – |
| CC(C)(C)C(=O)C(=Cc1cccc([N+](=O)[O-])c1)n1cncn1 [Compound 76, 4,4-dimethyl-1-(3-nitrophenyl)-2-(1H-1,2,4-triazol-1-yl)-1-penten-3-one] | 50.4 | 4.33 |
| OCCNC1CCCc2c1[nH]c1ccc(-c3ccccc3)cc21 (stereo not shown) [Compound 77, 2-[(6-Phenyl-2,3,4,9-tetrahydro-1H-carbazol-1-yl)amino]ethanol] | 50.8 | – |
| CC(C)COCC(CN(Cc1ccccc1)c1ccccc1)N1CCCC1 (stereo not shown) [Compound 78, 1-[1-(N-Benzylanilino)-3-isobutoxy-2-propyl]pyrrolidine monohydrochloride monohydrate] | 30.4 | – |
| COc1ccc2cc1Oc1ccc(cc1)C[C@H]1c3cc(c(OC)cc3CCN1C)Oc1c(OC)c(OC)cc3c1[C@H](C2)N(C)CC3 [Compound 79, (1beta)-(S,S)-6,6',7,12-Tetramethoxy-2,2'-dimethylberbaman] | 99.6 | – |
| CCN(CC)CCO[C@H]1CC[C@@]2(C)C(=CC[C@@H]3[C@@H]2CC[C@]2(C)C(=O)CC[C@@H]32)C1 [Compound 80, 3beta-[2-(Diethylamino)ethoxy]androst-5-en-17-one hydrochloride] | 44.7 | – |
| O=C(c1c2ccccc2cc2ccccc12)N1CCC(N2CCC[C@@H](C(=O)N3CCOCC3)C2)CC1 [Compound 81, 1-[1'-(Anthracen-9-ylcarbonyl)-1,4'-bipiperidin-3(R)-yl]-1-(4-morpholinyl)methanone] | 51 | – |
| CCN(CC)CCOc1ccc(C(=C(Cl)c2ccccc2)c2ccccc2)cc1 [Compound 82, 2-[4-(2-Chloro-1,2-diphenylvinyl)phenoxy]-N,N-diethylethanamine citrate] | 54.7 | – |

| Structure (SMILES) | Emax [%] | IC50 [µM] |
| --- | --- | --- |
| Cn1cc(-c2ccncc2)c(-c2ccc(OCc3ccc4ccccc4n3)cc2)n1 [Compound 83, 2-[4-[1-Methyl-4-(4-pyridyl)-1H-pyrazol-3-yl]phenoxymethyl]quinoline succinate] | 36.7 | – |
| CCN(CC)CCOc1ccc2c(c1)C(=O)c1cc(OCCN(CC)CC)ccc1-2 [Compound 84, 2,7-Bis[2-(diethylamino)ethoxy]-9H-fluoren-9-one] | 68.9 | – |
| Cc1cccc(Nc2nc(-c3ccncc3)cs2)c1 [Compound 85, N-(3-Methylphenyl)-4-(4-pyridyl)thiazol-2-amine] | 47.8 | – |
| O=S(=O)(NCC1CC1)c1ccc(Nc2nccc(N3CCCc4cc(O)ccc43)n2)cc1 [Compound 86, N-(Cyclopropylmethyl)-4-[[4-(3,4-dihydro-6-hydroxy-1(2H)-quinolinyl)-2-pyrimidinyl]amino]benzenesulfonamide] | 55 | – |
| CC(C)N1CCN(c2ccc(C(=O)c3c(-c4ccc(O)cc4)sc4cc(O)ccc34)cc2)CC1 [Compound 87, 1-[6-Hydroxy-2-(4-hydroxyphenyl)-1-benzothien-3-yl]-1-[4-(4-isopropylpiperazin-1-yl)phenyl]methanone] | 41 | – |
| CCCc1c(-c2ccc(O)cc2)nn(-c2ccc(O)cc2)c1-c1ccc(O)cc1 [Compound 88, 1,3,5-Tris(4-hydroxyphenyl)-4-propyl-1H-pyrazole] | 48.2 | 8.3 |
| CN(C)CCC=C1c2ccccc2C=Cc2ccccc21 [Compound 90, 3-(5H-Dibenzo[a,d]cyclohepten-5-ylidene)-N,N-dimethylpropan-1-amine hydrochloride] | 70.2 | 12.1 |
| CCC(=C(c1ccc(O)cc1)c1ccc(OCCNC)cc1)c1ccccc1 [Compound 91, 4-[1-[4-[2-(Methylamino)ethoxy]phenyl]-2-phenyl-1-butenyl]phenol hydrochloride] | 35.7 | 6.34 |
| Cc1ccc(NC(=O)Nc2cc(C(F)(F)F)ccc2F)cc1Nc1ccc2c(c1)NC(=O)C2=Cc1ccc[nH]1 [Compound 92, 1-[2-Fluoro-5-(trifluoromethyl)phenyl]-3-[4-methyl-3-[2-oxo-3-(1H-pyrrol-2-ylmethylene)-2,3-dihydro-1H-indol-6-ylamino]phenyl]urea] | 75.5 | 5.23 |
| CC[C@@H](C(=O)[C@@H](C)[C@@H](O)[C@H](C)[C@@H]1O[C@@H]([C@@H](CC)C(=O)O)CC[C@@H]1C)[C@H]1O[C@]2(C=C[C@@H](O)[C@]3(CC[C@@](C)([C@H]4CC[C@](O)(CC)[C@H](C)O4)O3)O2)[C@H](C)C[C@@H]1C [Compound 93, 2(R)-[6(R)-[5(R)-[(2S,5S,7R,9S,10S,12R,15R)-2-[5(R)-Ethyl-5-hydroxy-6(S)-methyltetrahydropyran-2(R)-yl]-15-hydroxy-2,10,12-trimethyl-1,6,8-trioxadispiro[4.1.5.3]pentadec-13-en-9-yl]-2(S)-hydroxy-1(S),3(S)-dimethyl-4-oxoheptyl]-5(S)-methyltetrahydropyran-2(R)-yl]butyric acid] | 34.4 | – |
| CN1CCN(CCCN2c3ccccc3Sc3ccc(C(F)(F)F)cc32)CC1 [Compound 94, 10-[3-(4-Methylpiperazin-1-yl)propyl]-2-(trifluoromethyl)-10H-phenothiazine dihydrochloride] | 38 | – |
| COc1cc2c(NC3CCN(C(C)C)CC3)nc(N3CCC(F)(F)CC3)nc2cc1OCCCN1CCCC1 [Compound 95, 2-(4,4-Difluoropiperidin-1-yl)-6-methoxy-N-[1-(propan-2-yl)piperidin-4-yl]-7-[3-(pyrrolidin-1-yl)propoxy]quinazolin-4-amine] | 31.1 | – |
| CC(C)C(=O)OCC(=O)[C@@]12O[C@H](C3CCCCC3)O[C@@H]1C[C@H]1[C@@H]3CCC4=CC(=O)C=C[C@]4(C)[C@H]3[C@@H](O)C[C@@]12C [Compound 96, 16alpha,17alpha-[(R)-Cyclohexylmethylenedioxy]-11beta-hydroxy-21-(isobutyryloxy)pregna-1,4-dien-3-one] | 35.2 | 47 |
| Nc1nc(NC[C@H]2CC[C@H](CNS(=O)(=O)c3cccc4ccccc34)CC2)nc2ccccc12 [Compound 97, N-[[trans-4-[[(4-Amino-2-quinazolinyl)amino]methyl]cyclohexyl]methyl]-1-naphthalenesulfonamide] | 39.2 | – |
| CC[C@@]1([C@@H]2O[C@@H]([C@H]3O[C@@](O)(COC(=O)Nc4ccccc4)[C@H](C)C[C@@H]3C)C[C@@H]2C)CC[C@H]([C@]2(C)CC[C@]3(C[C@H](O)[C@@H](C)[C@@H]([C@@H](C)[C@@H](OC)[C@H](C)C(=O)O)O3)O2)O1 [Compound 98, 4(S)-[(2S,5R,7S,8R,9S)-2-[(2S,2'R,3'S,5R,5'R)-2-Ethyl-5'-[6(R)-hydroxy-3(S),5(R)-dimethyl-6-(phenylaminocarbonyloxymethyl)tetrahydropyran-2(S)-yl]-3'-methylperhydro-2,2'-bifuran-5-yl]-9-hydroxy-2,8-dimethyl-1,6-dioxaspiro[4.5]dec-7-yl]-3(R)-methoxy-2(S)-methylpentanoic acid sodium salt] | 38.2 | 3.18 |
| CC(C)(C)c1cc(C=C(C#N)C#N)cc(Br)c1O [Compound 99, 2-(3-Bromo-5-tert-butyl-4-hydroxybenzylidene)propanedinitrile] | 37.3 | 7.23 |
| O=C(Nc1ccc(Cl)cc1)Nc1ccc(Cl)c(Cl)c1 [Compound 100, 3-(4-Chlorofenil)-1-(3,4-diclorofenil)urea] | 47.2 | – |
| Oc1c(Cl)cc(Cl)cc1Sc1cc(Cl)cc(Cl)c1O [Compound 102, 2,2'-Thio-bis(4,6-dichlorophenol)] | 31.2 | – |
